Laboratory results taken from the supplement of paper PMC10307832.

Key:
Test in all cases: relative viability (nuclei count vs DMSO), 5 days (fraction); higher = more cells survive
[1] = compound: C1=CC=C2C(=C1)C=CC(=C2SSC3=C(C=CC4=CC=CC=C43)O)O [IPA-3] + COc1cc2c(Oc3ccc(NC(=O)C4(C(=O)Nc5ccc(F)cc5)CC4)cc3F)ccnc2cc1OCCCN1CCOCC1 [Foretinib] (partner 0.25 µM)
How it was run: (§1)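 Lung cancer cell lines, seeded in 1536-well plates, were treated the following day by pin tool with a single drug or with five library-drug doses (not always all listed) in √10 steps on top of a fixed anchor-drug dose. Cells were fixed and nuclei stained in one step after 5 days, and nuclei were counted. Relative viability is the nuclei count for treated wells divided by that for vehicle wells, reported as medians of duplicate plates.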

[2] = compound: C1=CC=C2C(=C1)C=CC(=C2SSC3=C(C=CC4=CC=CC=C43)O)O [IPA-3] + CS(=O)(=O)CCNCc1ccc(-c2ccc3ncnc(Nc4ccc(OCc5cccc(F)c5)c(Cl)c4)c3c2)o1 [Lapatinib] (partner 2 µM)
How it was run: as §1

[3] = compound: Cc1ccc(-n2nc(C(C)(C)C)cc2NC(=O)Nc2ccc(OCCN3CCOCC3)c3ccccc23)cc1 [Doramapimod] + Cc1cc(Nc2cc(N3CCN(C)CC3)nc(Sc3ccc(NC(=O)C4CC4)cc3)n2)n[nH]1 [Tozasertib] (partner 0.1 µM)
How it was run: as §1

[4] = compound: Cc1ccc(-n2nc(C(C)(C)C)cc2NC(=O)Nc2ccc(OCCN3CCOCC3)c3ccccc23)cc1 [Doramapimod] + Nc1ncn([C@H]2C[C@H](O)[C@@H](CO)O2)c(=O)n1 [Decitabine] (partner 2 µM)
How it was run: as §1

Cell Line | relative viability ([1]; first compound 0.2 µM) | relative viability ([1]; first compound 0.6325 µM) | relative viability ([1]; first compound 2 µM) | relative viability ([1]; first compound 6.325 µM) | relative viability ([1]; first compound 20 µM) | relative viability ([2]; first compound 0.2 µM) | relative viability ([2]; first compound 0.6325 µM) | relative viability ([2]; first compound 2 µM) | relative viability ([2]; first compound 6.325 µM) | relative viability ([2]; first compound 20 µM) | relative viability ([3]; first compound 0.02 µM) | relative viability ([3]; first compound 0.06325 µM) | relative viability ([3]; first compound 0.2 µM) | relative viability ([3]; first compound 0.6325 µM) | relative viability ([3]; first compound 2 µM) | relative viability ([4]; first compound 0.02 µM) | relative viability ([4]; first compound 0.06325 µM) | relative viability ([4]; first compound 0.2 µM) | relative viability ([4]; first compound 0.6325 µM) | relative viability ([4]; first compound 2 µM)
LU99A | 0.877 | 0.734 | 0.687 | 0.763 | 0.921 | 0.934 | 0.95 | 1.05 | 0.922 | 0.943 | 0.307 | 0.248 | 0.294 | 0.252 | 0.264 | 0.905 | 0.948 | 0.754 | 0.97 | 0.759
LXF-289 | 1 | 0.919 | 0.993 | 1.01 | 1.11 | 0.976 | 0.869 | 0.973 | 0.941 | 0.931 | 0.207 | 0.177 | 0.177 | 0.19 | 0.203 | 0.374 | 0.393 | 0.354 | 0.373 | 0.351
NCI-H23 | 1.03 | 1.02 | 0.971 | 1 | 1.17 | 1.16 | 1.04 | 1.24 | 1.09 | 0.735 | 0.622 | 0.34 | 0.366 | 0.433 | 0.326 | 0.359 | 0.288 | 0.358 | 0.329 | 0.265
NCI-H322M | 1.05 | 0.961 | 1.15 | 1.04 | 1.13 | 0.566 | 0.66 | 0.596 | 0.566 | 0.613 | 0.519 | 0.487 | 0.532 | 0.497 | 0.531 | 0.722 | 0.671 | 0.736 | 0.785 | 0.706
NCI-H358 | 0.815 | 0.622 | 0.713 | 0.732 | 0.721 | 0.532 | 0.47 | 0.445 | 0.51 | 0.413 | 0.0934 | 0.0925 | 0.101 | 0.105 | 0.109 | 0.209 | 0.203 | 0.197 | 0.232 | 0.205
NCI-H460 | 1.12 | 0.924 | 0.851 | 0.929 | 0.931 | – | 0.807 | 1.1 | 0.889 | 1.19 | 0.455 | 0.517 | 0.49 | 0.673 | 0.372 | 0.499 | 0.434 | 0.487 | 0.553 | 0.46
NCI-H520 | 0.885 | 0.757 | 0.743 | 0.613 | 0.837 | 1.04 | 0.894 | 0.697 | 0.95 | 0.729 | 0.483 | 0.441 | 0.402 | 0.42 | 0.382 | 0.408 | 0.46 | 0.536 | 0.552 | 0.424
NCI-H596 | 0.691 | 0.945 | 0.923 | 0.881 | 1.06 | 1.09 | 1.09 | 1.13 | 1.03 | 1.35 | 0.939 | 0.862 | 1.11 | 0.982 | 0.883 | 1 | 0.97 | 1.02 | 0.995 | 1
